In patent US20240246940A1, “HETEROARYL DERIVATIVE COMPOUND AND USE THEREOF” (VORONOI INC., priority 2021, published 2024):

Key:
[1] = test system: SK-BR-3 cells (HER2 overexpressing cell line); assay: SK-BR-3 cell proliferation inhibitory activity (CellTiter-Glo, 120 hours); format: cell-based; details: Homo sapiens
Summary of the method: (§1)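 Plate cells (HaCaT 3000/well, others 5000/well), then allow 24 h or 48 h before dosing, with the longer wait for SK-BR-3 and BT-474. Add compounds as 3-fold series, or 5-fold for N-87, at 11 concentrations each. Read viability luminescence, compute growth % against control and derive GI50.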

[2] = test system: HaCaT cells (EGFR expressing cell line); assay: HaCaT cell proliferation inhibitory activity (CellTiter-Glo, 72 hours); format: cell-based; details: Homo sapiens
Summary of the method: as §1

| GI50 [1] | Structure (SMILES) | GI50 [2] |
| --- | --- | --- |
| ≤ 150 nM | C=CC(=O)Nc1cc2c(Nc3cc(-c4ccco4)ccc3OC)ncnc2cc1OCCN1CCOCC1 [Example 271, N-(4-((5-(furan-2-yl)-2-methoxyphenyl)amino)-7-(2-morpholinoethoxy)quinazolin-6-yl)acrylamide] | ≤ 150 nM |
| ≤ 150 nM | C=CC(=O)Nc1cc2c(Nc3cc(-c4ccco4)ccc3OC)ncnc2cc1OCCCOC [Example 273, N-(4-((5-(furan-2-yl)-2-methoxyphenyl)amino)-7-(3-methoxypropoxy)quinazolin-6-yl)acrylamide] | ≤ 150 nM |
| ≤ 150 nM | C=CC(=O)N1CCC(Nc2cc3c(Nc4cc(-c5ccco5)ccc4OC)ncnc3cc2OCCCOC)CC1 [Example 274, 1-(4-((4-((5-(furan-2-yl)-2-methoxyphenyl)amino)-7-(3-methoxypropoxy)quinazolin-6-yl)amino)piperidin-1-yl)prop-2-en-1-one] | ≤ 150 nM |
| ≤ 150 nM | C=CC(=O)Nc1cc2c(Nc3cc(-c4ccco4)ccc3OC)ncnc2cc1OCCOC [Example 275, N-(4-((5-(furan-2-yl)-2-methoxyphenyl)amino)-7-(2-methoxyethoxy)quinazolin-6-yl)acrylamide] | ≤ 150 nM |
| ≤ 150 nM | C=CC(=O)Nc1cc2c(Nc3cc(-c4ccco4)ccc3OC)ncnc2cc1OCCCN1CCOCC1 [Example 277, N-(4-((5-(furan-2-yl)-2-methoxyphenyl)amino)-7-(3-morpholinopropoxy)quinazolin-6-yl)acrylamide] | ≤ 150 nM |
| ≤ 150 nM | C=CC(=O)Nc1cc2c(Nc3cc(-c4ccn5ncnc5c4)ccc3OC)ncnc2cc1OC [Example 287, N-(4-((5-([1,2,4]triazolo[1,5-a]pyridin-7-yl)-2-methoxyphenyl)amino)-7-methoxyquinazolin-6-yl)acrylamide] | > 1000 nM |
| 150 to 1000 nM | C=CC(=O)Nc1cc2c(Nc3cc(-c4ccc5occc5c4)ccc3OC)ncnc2cc1OC [Example 288, N-(4-((5-(benzofuran-5-yl)-2-methoxyphenyl)amino)-7-methoxyquinazolin-6-yl)acrylamide] | > 1000 nM |

Continued, compound first:

| Structure (SMILES) | GI50 [1] | GI50 [2] |
| --- | --- | --- |
| C=CC(=O)N1CCC(Nc2cc3c(Nc4cc(-c5ccc(F)cc5F)ccc4OC)ncnc3cc2OCCCN2CCOCC2)CC1 [Example 269, 1-(4-((4-((2′,4′-difluoro-4-methoxy-[1,1′-biphenyl]-3-yl)amino)-7-(3-morpholinopropoxy)quinazolin-6-yl)amino)piperidin-1-yl)prop-2-en-1-one] | ≤ 150 nM | ≤ 150 nM |
| C=CC(=O)N1CCC(Nc2cc3c(Nc4cc(-c5ccco5)ccc4OC)ncnc3cc2OCCN2CCOCC2)CC1 [Example 272, 1-(4-((4-((5-(furan-2-yl)-2-methoxyphenyl)amino)-7-(2-morpholinoethoxy)quinazolin-6-yl)amino)piperidin-1-yl)prop-2-en-1-one] | ≤ 150 nM | ≤ 150 nM |
| C=CC(=O)N1CCC(Nc2cc3c(Nc4cc(-c5ccco5)ccc4OC)ncnc3cc2O[C@H]2CCOC2)CC1 [Example 279, (S)-1-(4-((4-((5-(furan-2-yl)-2-methoxyphenyl)amino)-7-((tetrahydrofuran-3-yl)oxy)quinazolin-6-yl)amino)piperidin-1-yl)prop-2-en-1-one] | ≤ 150 nM | ≤ 150 nM |
| C=CC(=O)N1CCC(Nc2cc3c(Nc4cc(-c5ccco5)ccc4OC)ncnc3cc2O[C@@H]2CCOC2)CC1 [Example 280, (R)-1-(4-((4-((5-(furan-2-yl)-2-methoxyphenyl)amino)-7-((tetrahydrofuran-3-yl)oxy)quinazolin-6-yl)amino)piperidin-1-yl)prop-2-en-1-one] | ≤ 150 nM | ≤ 150 nM |
| C=CC(=O)N1CCC(Nc2cc3c(Nc4cc(-c5ccc(F)cc5F)ccc4OC)ncnc3cc2O[C@@H]2CCOC2)CC1 [Example 282, (R)-1-(4-((4-((2′,4′-difluoro-4-methoxy-[1,1′-biphenyl]-3-yl)amino)-7-((tetrahydrofuran-3-yl)oxy)quinazolin-6-yl)amino)piperidin-1-yl)prop-2-en-1-one] | ≤ 150 nM | ≤ 150 nM |
